{
  "source": "patent US20070191935A1",
  "about": "“Drug Delivery Stent with Extended In Vivo Drug Release” (Conor Medsystems, Inc., priority 2006, published 2007)",
  "key": {"[1]": {"assay": "in vivo paclitaxel release from stent (explanted stents, total drug load by HPLC)", "excerpt": "The measurement of in vivo paclitaxel release from a stent can be performed according to the following Example.\nStents are implanted in a porcine model and explanted at selected time points by removing the entire artery section. The expanded stents are labeled and frozen. The tissue is removed from the stent by slicing the tissue on the outside of the stent lengthwise, inverting the tissue, and removing the tissue by cutting and turning the tissue inside out. The stent may still be covered by a tough elastic membrane which is then removed by splitting the membrane and peeling it off the stent. For longer time points, there will also be a tub of tissue inside the stent. This tube is separated from the stent with tweezers, turned inside out and pulled out of the stent.\nThe elution rates of drug from the examples are determined in a standard sink condition experiment.\nThe total drug load (TDL) of paclitaxel from a stent is determined by extracting all the polymer and drug from the stent in a solvent such as dimethyl sulfoxide (DMSO) or acetonitrile. The amount of paclitaxel in a solution sample is determined by High Pressure Liquid Chromatography (HPLC).\nThe in vivo release kinetic (RK) for paclitaxel from a stent is determined by running the TDL for multiple explanted time points. The TDL for the explanted samples is subtracted from the TDL of an unimplanted stent to determine the amount of paclitaxel released at each of the explanted time points."}, "[2]": {"tested_on": "in stent neointimal proliferation", "assay": "clinical trials, in stent neointimal proliferation", "details": "in vivo release greater than 60 days from stent"}},
  "data": [
    {"smiles": "CC(=O)O[C@H]1C(=O)[C@@]2(C)[C@H]([C@H](OC(=O)c3ccccc3)[C@]3(O)C[C@H](OC(=O)[C@H](O)[C@@H](NC(=O)c4ccccc4)c4ccccc4)C(C)=C1C3(C)C)[C@]1(OC(C)=O)CO[C@@H]1C[C@@H]2O", "note": "[paclitaxel]", "values": [
      {"measurement": "in vivo release of the paclitaxel on the stent in the first 30 days after implantation", "setting": "[1]; first 30 days after implantation", "result": "not more than 40%"},
      {"measurement": "complete release of the entire dose of paclitaxel loaded on the stent", "setting": "[1]; in vivo", "result": "≤ 8", "unit": "months"},
      {"measurement": "time until all the drug loaded on the stent is released", "setting": "[1]; in vivo, FIG. 4", "result": "90 to 180", "unit": "days"},
      {"measurement": "release rate after day one", "setting": "[1]; in vivo, after day one, continues for up to about 90 days", "result": "under 0.1 μg per day"},
      {"measurement": "in stent neointimal proliferation, longer in vivo release vs more rapid release of the same dosage", "setting": "[2]", "result": "lower in stent neointimal proliferation than the more rapid release of the same dosage"}
    ]}
  ]
}
